“Also recorded” adds a separate entry of the source. Where no end group is shown, it is not given here.
Target: Complement component C5 (Homo sapiens, UniProt P01031)
Assay: Biacore SPR single-cycle kinetics of isolated knob domain peptides binding to C5
Description: For knob domain peptides, flow cells were activated using a standard immobilisation protocol: EDC/NHS was mixed at 1:1 ratio (flow rate, 10 μL/min; contact time, 30 s). C5, at 1 μg/mL in pH 4.5 sodium-acetate buffer, was immobilized on flow cell 2 only (flow rate, 10 μL/min; contact time, 420 s). Finally, ethanolamine was applied to both flow cells (flow rate, 10 μL/min; contact time, 420 s). A final immobilization level of approximately 1,500–2,000 response units was obtained for peptide samples. For the PGT121-K149 fusion protein and K149 knob domain, the same immobilisation protocols were used but with a 750 ng/mL solution of C5, instead of 1 μg/mL.
One-micromolar stock solutions of the analytes (PGT121 knob domain fusion proteins and free knob domain peptides) were prepared in HBS-EP buffer. A series of six 3-fold dilutions of each stock solution was prepared in the same buffer. The result was 7 solutions for each analyte, at concentrations ranging from 1 μM down to 1.37 nM. A high flow rate of 40 μL/min was used, with a contact time of 230 s and a dissociation time of 1,800 s for knob domain peptides and 10,000 s for PGT121 knob domain fusion proteins. For the PGT121-K149 fusion protein and K149 knob domain, the flow rate was further increased to 100 μL/min. Binding to the reference surface was subtracted, and the data were fitted to a single-site binding model using Biacore evaluation software. Data were inspected for evidence of mass transport limitation using the flow-rate–independent component of the mass transfer constant (tc).

Chain of Complement component C5 (P01031 19-673 limits assumed): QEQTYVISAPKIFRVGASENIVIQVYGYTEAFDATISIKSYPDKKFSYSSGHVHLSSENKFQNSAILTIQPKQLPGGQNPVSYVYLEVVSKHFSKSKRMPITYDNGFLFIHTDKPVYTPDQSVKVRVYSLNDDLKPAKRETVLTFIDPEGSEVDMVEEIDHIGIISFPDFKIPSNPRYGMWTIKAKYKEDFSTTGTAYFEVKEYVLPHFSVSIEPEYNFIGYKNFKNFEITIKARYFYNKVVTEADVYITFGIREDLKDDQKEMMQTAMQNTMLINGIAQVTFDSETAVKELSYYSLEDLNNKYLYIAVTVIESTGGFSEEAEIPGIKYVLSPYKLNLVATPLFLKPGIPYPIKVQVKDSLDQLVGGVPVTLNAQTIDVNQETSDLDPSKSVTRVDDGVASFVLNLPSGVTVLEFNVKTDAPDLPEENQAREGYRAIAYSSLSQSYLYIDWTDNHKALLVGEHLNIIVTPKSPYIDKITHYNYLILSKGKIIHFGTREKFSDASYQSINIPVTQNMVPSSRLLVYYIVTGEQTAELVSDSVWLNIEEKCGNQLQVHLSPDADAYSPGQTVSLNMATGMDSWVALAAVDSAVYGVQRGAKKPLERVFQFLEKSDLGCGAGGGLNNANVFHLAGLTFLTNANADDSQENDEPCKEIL
Chain of Complement component C5 (P01031 678-1676 limits assumed): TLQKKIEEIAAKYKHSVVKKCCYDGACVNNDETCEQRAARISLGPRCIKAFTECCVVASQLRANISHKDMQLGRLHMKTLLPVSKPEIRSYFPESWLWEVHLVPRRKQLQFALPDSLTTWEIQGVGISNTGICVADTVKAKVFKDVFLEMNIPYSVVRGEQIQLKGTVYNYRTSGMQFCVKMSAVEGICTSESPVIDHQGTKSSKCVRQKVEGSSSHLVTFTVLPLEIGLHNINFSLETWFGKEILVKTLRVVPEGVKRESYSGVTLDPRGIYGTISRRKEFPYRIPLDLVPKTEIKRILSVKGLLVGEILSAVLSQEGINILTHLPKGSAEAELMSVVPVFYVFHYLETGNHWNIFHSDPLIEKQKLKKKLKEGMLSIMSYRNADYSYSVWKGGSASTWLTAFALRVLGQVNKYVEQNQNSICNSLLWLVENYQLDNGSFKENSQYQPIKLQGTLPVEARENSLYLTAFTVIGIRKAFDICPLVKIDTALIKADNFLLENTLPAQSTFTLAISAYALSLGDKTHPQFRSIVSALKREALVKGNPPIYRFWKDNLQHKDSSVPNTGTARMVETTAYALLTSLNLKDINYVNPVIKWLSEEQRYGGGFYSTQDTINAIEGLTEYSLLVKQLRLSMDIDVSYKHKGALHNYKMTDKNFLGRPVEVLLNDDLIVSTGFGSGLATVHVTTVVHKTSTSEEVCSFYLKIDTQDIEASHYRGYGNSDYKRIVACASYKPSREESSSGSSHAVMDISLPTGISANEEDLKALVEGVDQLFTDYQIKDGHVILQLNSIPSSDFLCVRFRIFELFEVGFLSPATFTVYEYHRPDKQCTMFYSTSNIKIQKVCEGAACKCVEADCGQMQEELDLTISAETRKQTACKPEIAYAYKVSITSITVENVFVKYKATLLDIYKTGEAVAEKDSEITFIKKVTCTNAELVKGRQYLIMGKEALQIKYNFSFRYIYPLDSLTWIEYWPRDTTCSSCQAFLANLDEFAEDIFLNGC

GKSCREGYIDGGGCCLPGSCRGCACSYYDWLKCPRDCRGTSEEENLYFQ (also: bicyclic or more (positions not given here)) [K60, isolated bovine knob domain peptide, TEV-excised from PGT121 Fab]
mean KD (SPR single-cycle kinetics, 1:1 model, mean of 3 experiments (Fig 6)): not to bind; also recorded: Non-binding
Mean Stoichiometric ratio at 1 µM (SPR, analyte 1 µM, mean of n=3 occasions): <0.1
Stoichiometric ratio at 1 µM (occasion n=1): <0.1
Stoichiometric ratio at 1 µM (occasion n=2): <0.1
Stoichiometric ratio at 1 µM (occasion n=3): <0.1

Source: publication PMC7498065, “Isolation of antigen-specific, disulphide-rich knob domain peptides from bovine antibodies” (PLoS Biology, 2020)
